# According to patent US20130116277A1, “ALDO-KETO REDUCTASE SUBFAMILY 1C3 (AKR1C3) INHIBITORS” (priority 2007, published 2013):
# Like-named read-outs stand apart in the source and are kept apart here.
# Columns and labels:
# AKR1C3 = target: T1, AKR1C3 (Homo sapiens, UniProt P42330); assay: Purified AKR1C3 enzyme assay, [14C]-A'dione to testosterone, TLC based; type: biochemical; parameters: GST (N); made in house; host or cells: bacterial culture, IPTG induced (E. coli BL21-DE3 is named only for the crystallography preparation)
# T1 sequence (P42330 1-323): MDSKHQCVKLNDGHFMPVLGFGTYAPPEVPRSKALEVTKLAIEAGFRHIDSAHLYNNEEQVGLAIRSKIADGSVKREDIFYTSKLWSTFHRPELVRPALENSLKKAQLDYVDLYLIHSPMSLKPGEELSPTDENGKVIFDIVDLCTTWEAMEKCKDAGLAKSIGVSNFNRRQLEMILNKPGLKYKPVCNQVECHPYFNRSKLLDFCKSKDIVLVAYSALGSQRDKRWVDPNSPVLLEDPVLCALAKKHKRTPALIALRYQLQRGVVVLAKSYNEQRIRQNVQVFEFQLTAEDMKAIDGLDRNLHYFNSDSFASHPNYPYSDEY
# Description: Perkin Elmer; […] American Radiolabeled Chemicals, St. Louis, Mo.). The reaction was stopped by the addition of 400 μl ethyl acetate, vortexed, and spun for […] at 2000 rpm. The upper layer was transferred to a new tube and air dried. The pellet was resuspended in 25 μl of methanol, spotted on TLC plates and fractionated in TLC chamber with 3:1 chloroform:ethyl acetate. Once the mobile phase reached the top, the plates were dried and exposed to a phosphoimager screen overnight. […] Perkin Elmer) was incubated at 37° C. for 60 min. The reaction was stopped by the addition of 400 μl ethyl acetate, vortexed, and spun for […] at 2000 rpm. The upper layer was transferred to a new tube and air dried. The pellet was resuspended in 25 μl of methanol, spotted on TLC plates and fractionated in TLC chamber with 3:1 chloroform:ethyl acetate. Once the mobile phase reached the top, the plates were dried and exposed to a phosphoimager screen overnight.
# ER-alpha = target: T2, ER-alpha (Homo sapiens, UniProt P03372); assay: ER-alpha transactivation (ERE-LUC luciferase) in HEK-293 cells; type: cell-based; settings: for EC50: drug alone, read-out: Agonist ER-α; for IC50: in combination with estradiol, read-out: Antagonist ER-α;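 for all read-outs here: HEK-293 cells co-transfected with an ER-alpha expression plasmid, an ERE-driven firefly luciferase reporter and a CMV Renilla control, with the firefly signal normalized to Renilla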
# T2 construct: expressed in transfected cells; host or cells: HEK-293
# T2 sequence (P03372 1-595): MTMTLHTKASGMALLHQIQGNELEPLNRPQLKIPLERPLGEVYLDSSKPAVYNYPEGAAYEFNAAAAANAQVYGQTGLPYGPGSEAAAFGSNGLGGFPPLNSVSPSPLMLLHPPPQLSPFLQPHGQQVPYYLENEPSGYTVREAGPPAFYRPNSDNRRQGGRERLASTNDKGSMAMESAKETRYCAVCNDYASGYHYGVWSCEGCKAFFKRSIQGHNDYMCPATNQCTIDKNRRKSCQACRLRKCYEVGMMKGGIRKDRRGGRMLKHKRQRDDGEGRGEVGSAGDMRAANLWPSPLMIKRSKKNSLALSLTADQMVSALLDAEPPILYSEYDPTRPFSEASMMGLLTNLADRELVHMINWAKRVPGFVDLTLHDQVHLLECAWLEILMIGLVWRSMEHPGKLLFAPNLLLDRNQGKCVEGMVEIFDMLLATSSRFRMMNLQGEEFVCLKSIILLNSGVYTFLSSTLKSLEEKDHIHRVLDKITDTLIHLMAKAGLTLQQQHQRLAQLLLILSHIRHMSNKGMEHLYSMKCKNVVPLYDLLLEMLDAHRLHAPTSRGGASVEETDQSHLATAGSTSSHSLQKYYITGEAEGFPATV
# ER-beta = target: T3, ER-beta (Homo sapiens, UniProt Q92731); assay: ER-beta transactivation (ERE-LUC luciferase) in HEK-293 cells; type: cell-based; settings: for EC50: drug alone, read-out: Agonist ER-β;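 for all read-outs here: HEK-293 cells transiently transfected with an ER-β expression plasmid and ERE-LUC reporter, firefly luciferase read-out normalized to co-transfected Renilla luciferase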
# T3 construct: expressed in transfected cells; host or cells: HEK-293
# [1] = 10 μM inhibitor, purified AKR1C3 TLC based enzyme assay, read-out: AKR1C3 inhibition at 10 μM
# [2] = read-out: % inhibition from control HSD-5 (10 uM)
# T3 sequence (Q92731 whole entry, species assumed): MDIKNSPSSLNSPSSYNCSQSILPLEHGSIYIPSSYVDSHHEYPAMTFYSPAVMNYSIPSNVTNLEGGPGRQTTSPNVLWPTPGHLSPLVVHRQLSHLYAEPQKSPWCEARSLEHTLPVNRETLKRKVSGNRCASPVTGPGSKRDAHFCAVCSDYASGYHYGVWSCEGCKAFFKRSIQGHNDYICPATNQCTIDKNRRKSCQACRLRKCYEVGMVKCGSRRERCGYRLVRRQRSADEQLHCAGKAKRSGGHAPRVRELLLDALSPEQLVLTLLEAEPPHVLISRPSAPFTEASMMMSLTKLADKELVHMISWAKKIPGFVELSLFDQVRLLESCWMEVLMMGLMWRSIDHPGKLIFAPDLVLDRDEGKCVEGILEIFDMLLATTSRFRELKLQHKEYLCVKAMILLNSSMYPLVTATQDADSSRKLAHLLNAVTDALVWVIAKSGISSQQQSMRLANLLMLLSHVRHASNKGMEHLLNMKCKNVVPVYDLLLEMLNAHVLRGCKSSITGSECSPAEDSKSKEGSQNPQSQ
SMILES,inhibition at 10 µM (AKR1C3; [1]),inhibition at 10 µM (AKR1C3; [2]),other results
"NC(=O)c1cc(O)cc2c(-c3cc(F)c(F)c(F)c3)cn(-c3ccc(O)cc3)c(=O)c12 [Compound 100A, 6-hydroxy-2-(4-hydroxyphenyl)-1-oxo-4-(3,4,5-trifluorophenyl)-1,2-dihydroisoquinoline-8-carboxamide]",0%,0%,–
"COC(=N)c1cc(O)cc2c(-c3ccc(C(F)(F)F)c(F)c3)cn(-c3ccc(O)cc3)c(=O)c12 [Compound 102A, Methyl 4-(3-fluoro-4-(trifluoromethyl)phenyl)-6-hydroxy-2-(4-hydroxyphenyl)-1-oxo-1,2-dihydroisoquinoline-8-carbimidate]",0%,0%,–
"COC(=N)c1cc(O)cc2c(-c3cc(F)c(F)c(F)c3)cn(-c3ccc(O)cc3)c(=O)c12 [Compound 100, Methyl 6-hydroxy-2-(4-hydroxyphenyl)-1-oxo-4-(3,4,5-trifluorophenyl)-1,2-dihydroisoquinoline-8-carbimidate]",20%,20%,–
"COC(=O)c1ccc(-n2ccc3cc(O)ccc3c2=O)cc1CBr [Compound 104A, methyl 2-(bromomethyl)-4-(6-hydroxy-1-oxoisoquinolin-2(1H)-yl)benzoate]",–,5%,–
"NC(=O)c1cc(O)cc2c(-c3ccc(C(F)(F)F)c(F)c3)cn(-c3ccc(O)cc3)c(=O)c12 [Compound 102B, 4-(3-fluoro-4-(trifluoromethyl)phenyl)-6-hydroxy-2-(4-hydroxyphenyl)-1-oxo-1,2-dihydroisoquinoline-8-carboxamide]",0%,0%,–
"O=c1c2ccc(O)cc2c(-c2cc(F)c(F)c(F)c2)cn1-c1ccc(O)cc1 [Compound 79, 6-hydroxy-2-(4-hydroxyphenyl)-4-(3,4,5-trifluorophenyl)isoquinolin-1(2H)-one]",44%,44%,"Agonist ER-α, % of E2 (ER-alpha; agonist mode, @1000 nM): 32.6% of E2 @1000 nM; Antagonist ER-α, % of E2 (ER-alpha; antagonist mode, @10k nM): 51% of E2 @10k nM; Agonist ER-β, % of E2 (ER-beta; agonist mode, @1000 nM): 45.0% of E2 @1000 nM; Antagonist ER-β, % of E2 (ER-beta; antagonist mode, @10k nM): 45.3% of E2 @10k nM"
"CNS(=O)(=O)c1ccc(-c2cn(-c3ccc(O)cc3)c(=O)c3ccc(O)cc23)cc1 [Compound 36, 4-(6-hydroxy-2-(4-hydroxyphenyl)-1-oxo-1,2-dihydroisoquinolin-4-yl)-N-methylbenzenesulfonamide]",20%,20%,EC50 (ER-alpha; agonist mode): > 10 µM; IC50 (ER-alpha; antagonist mode): > 10 µM; EC50 (ER-beta; agonist mode): > 10 µM
"O=C(O)c1ccc(-c2cn(-c3ccc(O)cc3)c(=O)c3ccc(O)cc23)cc1 [Compound 43, 4-(6-hydroxy-2-(4-hydroxyphenyl)-1-oxo-1,2-dihydroisoquinolin-4-yl)benzoic acid]",42%,42%,"EC50 (ER-alpha; agonist mode): > 10 µM; IC50 (ER-alpha; antagonist mode): > 10 µM; EC50 (ER-beta; agonist mode): > 10 µM; IC50 (ER-beta; antagonist mode, in combination with estradiol, read-out: Antagonist ER-β): > 10 µM"
"N#Cc1cc(O)cc2c(-c3ccc(C(F)(F)F)c(F)c3)cn(-c3ccc(O)cc3)c(=O)c12 [Compound 102, 4-(3-Fluoro-4-(trifluoromethyl)phenyl)-6-hydroxy-2-(4-hydroxyphenyl)-1-oxo-1,2-dihydroisoquinoline-8-carbonitrile]",10%,10%,–
"COc1ccc2c(=O)n(-c3ccc(CO)c(OC)c3)cc(-c3ccc(C(F)(F)F)cc3)c2c1 [Compound 25, 2-(4-(hydroxymethyl)-3-methoxyphenyl)-6-methoxy-4-(4-(trifluoromethyl)phenyl)isoquinolin-1(2H)-one]",0%,–,–
